For 16 compounds, GI50 results are on record in patent US20060241114A1, “Derivatives of azasugars as anticancer agents” (priority 2003, published 2006).

Assay [1] concerns DU145 (prostate carcinoma). The experiment in a line: In vitro growth inhibition screen (sulphorhodamine B), DU145. The class given is cell-based, human. To be noted: DU145 cells, incubated for 48 hours, sulphorhodamine B dye; read-out: GI50 (concentration which inhibits the cell growth by 50%), DU145 Prostate carcinoma. As to the method:
(§1) Each agent was tested over a broad concentration range (ten-fold dilutions starting from ≧100 μM to 10 nM) against 6 human cancer cell lines which was comprised of different tumor types. These are DU145 (prostate carcinoma), HT29 (colorectal adenocarcinoma), LOX (melanoma), MCF7 (breast adenocarcinoma), MCF7ADR (adriamycin resistant breast adenocarcinoma), and U251 (human glioblastoma). A standard compound doxorubicin was tested in each assay as a positive control. The cells were maintained in growing condition in RPMI 1640 medium containing 10% fetal calf serum and incubated at 37° C. under 5% CO2 atmosphere. All cell lines were inoculated onto a series of standard 96-well microtitre plate on day zero, followed by twenty four-hour incubation in the absence of test compound. The inoculation densities in the screen were as per Monk et al., (1991) J. Natl. Cancer Inst., 83, 757-766. All NCEs were dissolved in DMSO and diluted further in culture medium. An aliquot of each dilution was added to the growing cells in 96 well plates and incubated for 48 hours. After incubation, the assay was terminated by adding 50 μL of trichloroacetic acid (TCA) and incubating at 4° C. for 30 min. The precipitated cells were washed and stained with sulphorhodamine B dye for 30 min and the excess dye was washed off with acetic acid. Adsorbed dye was solubilised in Tris base (alkaline pH) and quantitated by measuring the OD at […] in ELISA READER. GI50 (concentration which inhibits the cell growth by 50%) was calculated according to Boyd and Paull, (1995) Drug Dev. Res., 34, 91-109.
(In general: Sulforhodamine B stains cellular protein and so reports cell mass.)

Assay [2] deals with MCF7ADR (adriamycin resistant breast adenocarcinoma). Put plainly: In vitro growth inhibition screen (sulphorhodamine B), MCF7ADR. The format is cell-based, human. Conditions: MCF7ADR cells, incubated for 48 hours, sulphorhodamine B dye; read-out: GI50 (concentration which inhibits the cell growth by 50%), MCF7ADR Adriamycin Resistant Breast adenocarcinoma. How it is done: as §1

A further assay relates to LOX (melanoma). Put plainly: In vitro growth inhibition screen (sulphorhodamine B), LOX. The class given is cell-based, human. Conditions: LOX cells, incubated for 48 hours, sulphorhodamine B dye; read-out: GI50 (concentration which inhibits the cell growth by 50%), LOX Melanoma. As to the method: as §1
In assay [3] the test system is MCF7 (breast adenocarcinoma). Put plainly: In vitro growth inhibition screen (sulphorhodamine B), MCF7. The class given is cell-based, human. To be noted: MCF7 cells, incubated for 48 hours, sulphorhodamine B dye; read-out: GI50 (concentration which inhibits the cell growth by 50%), MCF7 Breast adenocarcinoma. As to the method:
as §1

The subject of assay [4] is HT29 (colorectal adenocarcinoma). The experiment in a line: In vitro growth inhibition screen (sulphorhodamine B), HT29. To be noted: HT29 cells, incubated for 48 hours, sulphorhodamine B dye; read-out: GI50 (concentration which inhibits the cell growth by 50%), HT29 Colorectal adenocarcinoma. The format is cell-based, human. How it is done:
as §1

In assay [5] the test system is U251 (human glioblastoma). The experiment in a line: In vitro growth inhibition screen (sulphorhodamine B), U251. To be noted: U251 cells, incubated for 48 hours, sulphorhodamine B dye; read-out: GI50 (concentration which inhibits the cell growth by 50%), U251 Human glioblastoma astrocytoma. The format is cell-based. How it is done: as §1

Consider `CCCN1C(=O)[C@H](OCc2ccccc2)[C@@H](OCc2ccccc2)[C@H](OCc2ccccc2)[C@H]1CNC(=O)Nc1ccc(F)cc1F` [Compound No. 16, 2,3,4-Tri-O-benzyl-6-N-{[2,4-difluorophenyl]aminocarbonylamino}-N-propyl-D-gluco-δ-lactam], for which the GI50 in assay [1] amounted to 59.7 µM; in assay [2], 74.1 µM; with LOX (melanoma), 53.3 µM; in assay [3] it was 55.6 µM; in assay [4] it was 58.2 µM; in assay [5], 22.9 µM.

`CCCN1C(=O)[C@H](OCc2ccccc2)[C@@H](OCc2ccccc2)[C@H](OCc2ccccc2)[C@H]1CNC(=O)N1CCN(c2ccc(F)cc2)CC1` [Compound No. 76, 2,3,4-Tri-O-benzyl-6-N-{4-[4-fluorophenyl]piperazinylcarboxamido}-N-propyl-D-gluco-δ-lactam]: the GI50 in assay [1] was 45.2 µM; in assay [2], 90.7 µM; with LOX (melanoma), 40.9 µM; in assay [3], 38.6 µM; in assay [4], 28.6 µM; in assay [5], 25.7 µM.

Take `C=CCN1C(=O)C(OCc2ccccc2)C(OCc2ccccc2)C(OCc2ccccc2)C1COC(=O)Nc1ccc(Cl)cc1` [Compound No. 41, N-Allyl-6-O-(4-chlorophenylcarbamate)-2,3,4-tri-O-benzyl-D-gluco-δ-lactam]: the GI50 in assay [1] is 142 µM; in assay [2] it was more than 664 µM; with LOX (melanoma), more than 664 µM; in assay [3], 109 µM; in assay [4], 71.2 µM; in assay [5] it was more than 664 µM.

Turning to `CCCN1C(=O)[C@H](OCc2ccccc2)[C@@H](OCc2ccccc2)[C@H](OCc2ccccc2)[C@H]1CNC(=O)CNc1ccc(F)cc1` [Compound No. 55, 2,3,4-Tri-O-benzyl-6-N-{2-[4-fluoroanilino]acetyl}-N-propyl-D-gluco-δ-lactam], the GI50 in assay [1] is 4.1 µM; in assay [2] it was 10.2 µM; with LOX (melanoma), 3.3 µM; in assay [3] it was 8.2 µM; in assay [4], 4.7 µM; in assay [5], 4.1 µM.

As to `CCCN1C(=O)[C@H](OCc2ccccc2)[C@@H](OCc2ccccc2)[C@H](OCc2ccccc2)[C@H]1CNC(=O)Nc1ccccc1` [Compound No. 10, 2,3,4-Tri-O-benzyl-6-N-{[phenyl]aminocarbonylamino}-N-propyl-D-gluco-δ-lactam], the GI50 came to 39.3 µM in assay [1]; 16.7 µM in assay [2]; 12.5 µM in the assay on LOX (melanoma); 34.7 µM in assay [3]; 36.9 µM in assay [4]; 16.4 µM in assay [5].

Turning to “2,3,4-Tri-O-benzyl-6-N-[3-{2-iminocarbonyl aminoethyl)-indolyl]-N-propyl-D-gluco-δ-lactam [Compound No. 78]”, the GI50 in assay [1] amounted to 57.3 µM; in assay [2], 29.8 µM; with LOX (melanoma), 45.1 µM; in assay [3] it was 9.2 µM; in assay [4], 33.6 µM; in assay [5], 4.3 µM.

As to `CCCN1C(=O)[C@H](OCc2ccccc2)[C@@H](OCc2ccccc2)[C@H](OCc2ccccc2)[C@H]1CNC(=O)Cn1ncn(-c2ccc(Cl)cc2)c1=O` [Compound No. 57, 2,3,4-Tri-O-benzyl-6-N-{2-[4-chlorophenyl-3-(2H,4H)-1,2,4-triazol-3-onyl]acetyl}-N-propyl-D-gluco-δ-lactam], the GI50 came to 64.4 µM in assay [1]; 247 µM in assay [2]; 25.1 µM with LOX (melanoma); 20.1 µM in assay [3]; 22.7 µM in assay [4]; 154 µM in assay [5].

Consider “2,3,4-Tri-O-benzyl-6-(trifluoromethylacetamido)-N-propyl-D-gluco-δ-lactam [Compound No. 51]”, for which the GI50 in assay [1] came out at 43.7 µM; in assay [2], 16 µM; in the assay on LOX (melanoma), 13.6 µM; in assay [3] it was 9.9 µM; in assay [4] it was 6.8 µM; in assay [5], 10.3 µM.

For `CCCN1C(=O)[C@H](OCc2ccccc2)[C@@H](OCc2ccccc2)[C@H](OCc2ccccc2)[C@H]1CNC(=O)N1CCN(c2ccc(Cl)cc2)CC1` [Compound No. 75, 2,3,4-Tri-O-benzyl-6-N-{4-[4-chlorophenyl]piperazinylcarboxamido}-N-propyl-D-gluco-δ-lactam], the GI50 in assay [1] came to 25.7 µM; in assay [2] it was 11.6 µM; in the assay with LOX (melanoma), 16.9 µM; in assay [3] it was 1.6 µM; in assay [4] it was 18.4 µM; in assay [5], 8.8 µM.

As to `CCCN1C(=O)[C@H](O)[C@@H](O)[C@H](O)[C@H]1CNC(=O)C12CC3CC(CC(C3)C1)C2` [Compound No. 50, 6-(Adamantanecarboxamido)-N-propyl-D-gluco-δ-lactam], the GI50 in assay [1] is 108 µM; in assay [2], 138 µM; with LOX (melanoma), 97.2 µM; in assay [3], 82.8 µM; in assay [4], 38.1 µM; in assay [5] it was 144 µM.

With `CCCN1C(=O)[C@H](O)[C@@H](O)[C@H](O)[C@H]1CNC(=O)Nc1ccc(N)cc1` [Compound No. 28, 6-N-{[p-Aminophenyl]aminocarbonylamino}-N-propyl-D-gluco-δ-lactam], the GI50 came out at 288 µM in assay [1]; 194 µM in assay [2]; 136 µM in the assay on LOX (melanoma); 106 µM in assay [3]; 242 µM in assay [4]; 557 µM in assay [5].

As to `CCCN1C(=O)[C@H](O)[C@@H](O)[C@H](O)[C@H]1CNC(=O)Cn1cncn1` [Compound No. 66, N-Propyl-6-{2-[triazolyl]-acetyl}-D-gluco-δ-lactam], the GI50 was found to be 82.9 µM in assay [1]; 196 µM in assay [2]; 58.2 µM in the assay with LOX (melanoma); 124 µM in assay [3]; 149 µM in assay [4]; 142 µM in assay [5].

`CCCN1C(=O)C(OCc2ccccc2)C(OCc2ccccc2)C(OCc2ccccc2)C1CNC(=O)Nc1ccc(Cl)cc1` [Compound No. 3, 2,3,4-Tri-O-benzyl-6-N-{[4-chlorophenyl]aminocarbonylamino}-N-propyl-D-gluco-δ-lactam]: the GI50 in assay [1] worked out at 2 µM; in assay [2], 8.2 µM; in the assay on LOX (melanoma), 2.1 µM; in assay [3] it was 0.8 µM; in assay [4], 6.1 µM; in assay [5], 1.1 µM.

In the case of `CCCN1C[C@H](OCc2ccccc2)[C@@H](OCc2ccccc2)[C@H](OCc2ccccc2)[C@H]1CNC(=O)Nc1ccc(F)cc1` [Compound No. 40, 2,3,4-Tri-O-benzyl-6-N-{[4-fluorophenyl]aminocarbonylamino}-1,5-dideoxy-1,5-imino-N-propyl glucitol], the GI50 in assay [1] came out at 35.7 µM; in assay [2] it was 18.4 µM; with LOX (melanoma), 27.2 µM; in assay [3] it was 9.7 µM; in assay [4] it was 2 µM; in assay [5], 20.1 µM.

Consider `CCCN1C(=O)C(OCc2ccccc2)C(OCc2ccccc2)C(OCc2ccccc2)C1CNC(=O)NC(C)C` [Compound No. 20, 2,3,4-Tri-O-benzyl-6-N-{[isopropyl]aminocarbonylamino}-N-propyl-D-gluco-δ-lactam], for which the GI50 in assay [1] came out at 15.3 µM; in assay [2] it was 5.5 µM; with LOX (melanoma), 5.9 µM; in assay [3], 4.1 µM; in assay [4] it was 2.6 µM; in assay [5], 3.3 µM.

`CCCN1C(=O)[C@H](OCc2ccccc2)[C@@H](OCc2ccccc2)[C@H](OCc2ccccc2)[C@H]1CNC(=O)Nc1ccc(C(F)(F)F)cc1` [Compound No. 22, 2,3,4-Tri-O-benzyl-6-N-{[4-trifluoromethylphenyl]aminocarbonylamino}-N-propyl-D-gluco-δ-lactam]: the GI50 in assay [1] was 5.1 µM; in assay [2] it was 8.2 µM; with LOX (melanoma), 4.3 µM; in assay [3], 39.8 µM; in assay [4] it was 11.9 µM; in assay [5], 5.1 µM.
